Assay: xn = mol fraction of the nth substance listed

c1ccc2ncccc2c1 + OCC(F)(F)F
viscosity [mPa·s], 101.33 kPa
Settings | 298.15 K | 303.15 K | 308.15 K | 313.15 K | 318.15 K | 323.15 K
x1 = 0.16 | 2.34 | 2.05 | 1.84 | 1.62 | 1.46 | 1.32
x1 = 0.34 | 2.91 | 2.57 | 2.27 | 2.04 | 1.83 | 1.65
x1 = 0.54 | 3.14 | 2.79 | 2.46 | 2.21 | 2 | 1.82
x1 = 0.76 | 3.17 | 2.8 | 2.49 | 2.25 | 2.05 | 1.87

OCCNCCO + CN(C)C=O
viscosity [mPa·s], 101 kPa
Settings | 298.15 K | 303.15 K | 308.15 K | 313.15 K | 318.15 K | 323.15 K
x2 = 0.7704 | 2.703 | 2.509 | 2.34 | 2.172 | 2.034 | 1.879
x2 = 0.8119 | 2.172 | 2.009 | 1.842 | 1.682 | 1.542 | 1.427
x2 = 0.8519 | 1.853 | 1.686 | 1.559 | 1.429 | 1.295 | 1.204
x2 = 0.8907 | 1.53 | 1.423 | 1.321 | 1.206 | 1.115 | 1.03
x2 = 0.9283 | 1.357 | 1.238 | 1.14 | 1.043 | 0.9653 | 0.8984
x2 = 0.9647 | 1.169 | 1.097 | 1.02 | 0.9487 | 0.8828 | 0.8316

COCCOC + CCCCCCO
101 kPa
Settings | viscosity [mPa·s]
293.15 K, x1 = 0.03644 | 4.556
293.15 K, x1 = 0.07492 | 3.875
293.15 K, x1 = 0.1757 | 2.656
293.15 K, x1 = 0.2488 | 2.089
293.15 K, x1 = 0.3376 | 1.607
293.15 K, x1 = 0.4282 | 1.265
293.15 K, x1 = 0.5085 | 1.055
293.15 K, x1 = 0.5954 | 0.873
293.15 K, x1 = 0.6767 | 0.743
293.15 K, x1 = 0.7648 | 0.633
293.15 K, x1 = 0.8067 | 0.59
293.15 K, x1 = 0.8909 | 0.547
293.15 K, x1 = 0.9608 | 0.506
303.15 K, x1 = 0.03689 | 3.354
303.15 K, x1 = 0.08234 | 2.83
303.15 K, x1 = 0.1774 | 2.045
303.15 K, x1 = 0.2433 | 1.681
303.15 K, x1 = 0.3417 | 1.289
303.15 K, x1 = 0.4228 | 1.068
303.15 K, x1 = 0.5142 | 0.867
303.15 K, x1 = 0.5898 | 0.744
303.15 K, x1 = 0.6726 | 0.638
303.15 K, x1 = 0.7604 | 0.55
303.15 K, x1 = 0.8168 | 0.505
303.15 K, x1 = 0.8829 | 0.478
303.15 K, x1 = 0.9497 | 0.439
313.15 K, x1 = 0.02681 | 2.68
313.15 K, x1 = 0.04032 | 2.555
313.15 K, x1 = 0.07518 | 2.269
313.15 K, x1 = 0.1706 | 1.69
313.15 K, x1 = 0.3414 | 1.091
313.15 K, x1 = 0.4234 | 0.908
313.15 K, x1 = 0.5104 | 0.758
313.15 K, x1 = 0.5912 | 0.651
313.15 K, x1 = 0.6717 | 0.565
313.15 K, x1 = 0.7706 | 0.482
313.15 K, x1 = 0.8138 | 0.467
313.15 K, x1 = 0.8786 | 0.432
313.15 K, x1 = 0.9463 | 0.397

CC(=O)C(=O)O + CC(C)[C@@H]1CC[C@@H](C)C[C@H]1O
100 kPa, x2 = 0.67
Settings | viscosity [mPa·s]
293.15 K | 44.64
298.15 K | 29.95
303.15 K | 21.24
308.15 K | 15.67
313.15 K | 11.88
318.15 K | 9.36
323.15 K | 7.511

COc1ccccc1N + ClCCCl
viscosity [mPa·s], 100 kPa
Settings | x1 = 0.0875 | x1 = 0.1658 | x1 = 0.2536 | x1 = 0.3656 | x1 = 0.4856 | x1 = 0.5902 | x1 = 0.6816 | x1 = 0.7704 | x1 = 0.8841
303.15 K | 1.101 | 1.438 | 1.814 | 2.291 | 2.797 | 3.235 | 3.613 | 3.98 | 4.448
308.15 K | 1.037 | 1.353 | 1.704 | 2.148 | 2.617 | 3.022 | 3.372 | 3.711 | 4.139
313.15 K | 0.974 | 1.27 | 1.596 | 2.004 | 2.436 | 2.808 | 3.13 | 3.439 | 3.829

COC(C)=O + Cc1cccc(C)c1
viscosity [mPa·s], 101 kPa
Settings | 298.15 K | 308.15 K
x1 = 0.0409 | 0.565 | 0.515
x1 = 0.151 | 0.524 | 0.484
x1 = 0.2488 | 0.493 | 0.46
x1 = 0.3516 | 0.466 | 0.438
x1 = 0.4423 | 0.446 | 0.421
x1 = 0.4928 | 0.436 | 0.412
x1 = 0.5514 | 0.426 | 0.403
x1 = 0.6505 | 0.412 | 0.388
x1 = 0.7498 | 0.4 | 0.376
x1 = 0.8506 | 0.392 | 0.364
x1 = 0.9429 | 0.386 | 0.356

OCCNCCO + C[N+](C)(C)CCO.[Cl-]
viscosity [mPa·s], 101 kPa
Settings | x2 = 0.091 | x2 = 0.111 | x2 = 0.143
293.15 K | 611.4 | 565.3 | 567
313.15 K | 151.4 | 150.4 | 149.2

CCC(C)=O + CCCCCO
viscosity [mPa·s], 100 kPa
Settings | x1 = 0.0814 | x1 = 0.1574 | x1 = 0.2391 | x1 = 0.3486 | x1 = 0.4417 | x1 = 0.5529 | x1 = 0.6492 | x1 = 0.7389 | x1 = 0.8509 | x1 = 0.9389
293.15 K | 2.92 | 2.27 | 1.8 | 1.33 | 1.07 | 0.84 | 0.66 | 0.55 | 0.42 | 0.39
303.15 K | 2.31 | 1.82 | 1.46 | 1.12 | 0.91 | 0.73 | 0.61 | 0.52 | 0.45 | 0.4
313.15 K | 1.8 | 1.45 | 1.2 | 0.92 | 0.77 | 0.63 | 0.54 | 0.46 | 0.4 | 0.36
323.15 K | 1.45 | 1.18 | 0.99 | 0.78 | 0.66 | 0.54 | 0.46 | 0.4 | 0.35 | 0.32
